In patent US20240408052A1, “COMPOSITION CONTAINING SESAMIN AND ERGOTHIONEINE OR SALT THEREOF” (SUNTORY HOLDINGS LIMITED, priority 2021, published 2024):

Tested on: p16-INK4A (p16)
Assay: p16 expression in H2O2-treated TIG-3 cells (cellular senescence marker, real-time PCR)
Format: cell-based, human
Protocol: TIG-3 cells (human lung fibroblasts) were used to measure the expression level of p16-INK4A (p16) in the cells. Eagle's minimum essential medium supplemented with 10% fetal bovine serum was used in each of Examples 1 and 2, Reference Example 1, and Comparative Examples 1 to 4. A H2O2 (200 μM)-supplemented medium used for H2O2 treatment was prepared by adding H2O2 to the medium described above. The H2O2 (200 μM)-supplemented medium is free of sesamin-class compounds and ergothioneine.
In Examples 1 and 2, in order to investigate the action on cellular senescence, the cells were cultured in a medium containing sesamin-class compounds and ergothioneine and were then treated with the H2O2-supplemented medium. […]
Specifically, TIG-3 cells at 4.0×10^4 cells/well were seeded onto 6-well plates and cultured at 37° C. with CO2 (5%) for 24 hours in a medium supplemented with a sesamin-episesamin mixture (SE) and ergothioneine at the respective concentrations shown in the following Table 1. […] The resulting pellets were dissolved in 20 μL DNase RNase free water (Invitrogen) and measured by NanoDrop. […] A master mix (15 μL) (Takara, TB Green® Premix Ex Taq™ II (Tli RNaseH Plus)) was mixed with the cDNA sample (5 μL), and p16 was measured with a Real-Time PCR system (Applied Biosystems, StepOnePlus-01). An average p16 expression level (n=6) was determined. […]

C[N+](C)(C)[C@@H](Cc1c[nH]c(=S)[nH]1)C(=O)[O-] [ergothioneine, L-ergothioneine]
p16 expression level compared to the H2O2-treated group (Comparative Example 1) (FIG. 1, ergothioneine 0.1 μM, 200 μM H2O2 two hours, then six days culture, n=6): no significant change
p16 expression compared to the H2O2-treated group (Comparative Example 1) (FIG. 2, ergothioneine 10 μM, 200 μM H2O2, p<0.05): significantly suppressed
